These results are taken from US20260102407A1, “TREATMENT METHODS” (priority 2020, published 2026).

The target of data set [1] is T1, Recombinant human His-MEK1 (Homo sapiens, UniProt Q02750).
T1 construct: purchased ThermoFisher Scientific PV3303
Briefly: SPR (Biacore T200) on immobilised His-MEK1. Format: binding. The conditions noted are these: 15° C.; 20 mM HEPES, 150 mM NaCl, 5% DMSO pH 7.4. How it is done: (§1) SPR. SPR was performed on a Biacore T200. The active and reference flow cells of a Xantec NIHMC Ni sensor chip were conditioned with 0.5M NaEDTA followed by 5 mM NiCl2 in immobilisation buffer (20 mM HEPES, 150 mM NaCl, pH 7.4). Recombinant human His-MEK1 and His-MEK2 (500 nM, ThermoFisher Scientific, cat. PV3303 and PV3615, respectively) were injected for 15 min at 10 μl min^−1 over separate active flow cells. All immobilisation was carried out at 25° C. Following immobilisation, the temperature was lowered to 15° C., and the buffer changed to 20 mM HEPES, 150 mM NaCl, 5% DMSO pH 7.4. Samples of PD98059 (2.5-30 μM in running buffer) and BT2 (1.25-15 μM) were injected at a flow rate of 30 μl min^−1 over immobilised MEK1 and MEK2. Solvent correction was applied to the data using a DMSO standard curve. Data were analysed using the Biacore T200 Evaluation software. Prior to SPR, limits of compound solubility were determined using ^1H 1D NMR.
A general note: In SPR one partner is held on a chip, and binding of the other changes the refractive index at the surface.

In data set [2] the test system is HY79b pigmented rabbits. Briefly: Rabbit retinal vascular hyperpermeability model induced by rhVEGF-A165. Format: in vivo. How it is done:
Rabbit retinal vascular hyperpermeability model. Male HY79b pigmented rabbits (8-12 week-old) were anesthetized by an intramuscular injection of Rompun® (xylazine)/Imalgene® (ketamine). Compound (600 μg BT2, BT3 or saline vehicle containing 0.5% Tween 80 and 10% DMSO vehicle in 100 μl) was injected into the right eye 5d prior to rhVEGF-A165 induction. Injections were performed on anesthetized animals under an operating microscope using a 250 μl Hamilton syringe (fitted with 30G needle). Retinal vascular permeability was induced by a single 50 μl IVT injection of 500 ng rhVEGF-A165 (diluted in PBS with carrier protein) into the right eye. Forty-seven hours (+/−3 h) after induction, sodium fluorescein (10% in saline, 50 mg/kg) was injected into the marginal ear vein. One hour after fluorescein injection, animals were anaesthetized and pupils were dilated by instillation of one drop of 0.5% tropicamide. Ocular fluorescence in both eyes was measured with a FM-2 Fluorotron Master ocular fluorophotometer. Animals were euthanized by injection of pentobarbital.

Data set [3] relates to HMEC-1. Put plainly: Endothelial proliferation assay using the xCELLigence system. The settings on record: for serum-inducible endothelial proliferation (xCELLigence cell index): HMEC-1, 5% FBS, 0.2-1 μM, 79 h. The class given is cell-based, human. How it is done:
Endothelial proliferation assay using the xCELLigence system. HMEC-1 proliferation was evaluated using the xCELLigence System (Roche, Castle Hill). Briefly, HMEC-1 (5×10^3 cells/well) were seeded in a 96-well E-plate and inserted into the xCELLigence RTCA station (Roche). Cells were serum-deprived for 24 h in MCDB131 medium which contained 10 ng/ml EGF (Sigma-Aldrich) and 1 μg/ml hydrocortisone (Sigma-Aldrich) then treated with compound (0.2-1 μM) in medium containing 5% FBS, 10 ng/ml EGF (Sigma-Aldrich) and 1 μg/ml hydrocortisone (Sigma-Aldrich). Cell growth was monitored automatically every 15 min by xCELLigence system. Cell index (CI) represents a quantitative measure of each well cell growth. In this system, CI a unitless parameter that reports impedance of electron flow caused by adherent cells.

In data set [4] the test system is HMEC-1. Put plainly: Endothelial repair following in vitro injury (scratch assay). The class given is cell-based, human. The conditions noted are these: 0.6 μM, 5% FBS, 48 h. Here is the method: Endothelial repair following in vitro injury. HMEC-1 (90-100% confluency) in 6-well plates were washed with PBS, and treated with 0.6 μM compound in MCDB131 containing 5% FBS. A sterile pointed toothpick was used to scrape the cell monolayer and the wells photographed under 4× objective at 0 h and 48 h. Cell regrowth in the denuded zone was determined using Image-Pro Plus (Cybernetics, USA).

The target in data set [5] is T2, Recombinant human His-MEK2 (Homo sapiens, UniProt P36507).
T2 construct: purchased ThermoFisher Scientific PV3615
Briefly: SPR (Biacore T200) on immobilised His-MEK2. Format: binding. The settings on record: 15° C.; 20 mM HEPES, 150 mM NaCl, 5% DMSO pH 7.4. How it is done: as §1

Data set [6] has as its system FosB/ΔFosB. Put plainly: Western blot, serum-inducible FosB/ΔFosB expression in HMEC-1. Format: cell-based, human. The settings on record: 30 μM compound, 10% FBS 1 h. How it is done: Western blot analysis with extracts of cells treated with serum. HMEC-1 (80-90% confluency) were arrested in serum-free MCDB131 medium without EGF or hydrocortisone for 20 h. Cells were treated with 30 μM compound in serum-free MCDB131 medium for 4 h, and the medium was changed to complete medium (with 10% FBS with EGF and hydrocortisone) with 30 μM compound for 1 h. Total protein was harvested as previously described in radioimmunoprecipitation (RIPA) lysis buffer with protease inhibitors (Li, Y., et al., Int J Cardiol 220, 185-191 (2016)). Proteins were resolved on 4-20% (w/v) sodium dodecyl sulfate (SDS)-polyacrylamide gradient gels (Bio-Rad Mini-PROTEAN TGX) and transferred to Immobilon-P PVDF membranes (Millipore, USA). Membranes were blocked with 5% skim milk and incubated with rabbit monoclonal FosB (cat. 2251, 1:1000, Cell Signaling, USA), rabbit monoclonal c-Fos antibodies (cat. 2250, 1:1000, Cell Signaling, USA) at 4° C. overnight or mouse monoclonal […] antibodies (cat. A5316, 1:30000, Sigma-Aldrich) at 22° C. for 15 min then incubated with a horseradish peroxidase conjugated secondary goat anti-rabbit (cat. P0448, 1:1000, DAKO Cytomation, Denmark) or goat anti-mouse (cat. P0447, 1:1000, DAKO Cytomation, Denmark) antibodies for 1 h. Chemiluminescence was detected using the Western Lightning Chemiluminescence system (PerkinElmer, USA) and ImageQuant™ LAS 4000 biomolecular imager (GE Healthcare Life Sciences, USA). Band intensity in images generated with the LAS 4000 on automatic exposure with sensitivity/resolution setting high was quantified using NIH ImageJ.
A general note: Immunoblotting shows a protein as a band on a membrane.

Data set [7] in a line: Solubility on dilution in medium containing serum. The class given is physicochemical.

SMILES strings stand for the structures.

T2 sequence (P36507 whole entry): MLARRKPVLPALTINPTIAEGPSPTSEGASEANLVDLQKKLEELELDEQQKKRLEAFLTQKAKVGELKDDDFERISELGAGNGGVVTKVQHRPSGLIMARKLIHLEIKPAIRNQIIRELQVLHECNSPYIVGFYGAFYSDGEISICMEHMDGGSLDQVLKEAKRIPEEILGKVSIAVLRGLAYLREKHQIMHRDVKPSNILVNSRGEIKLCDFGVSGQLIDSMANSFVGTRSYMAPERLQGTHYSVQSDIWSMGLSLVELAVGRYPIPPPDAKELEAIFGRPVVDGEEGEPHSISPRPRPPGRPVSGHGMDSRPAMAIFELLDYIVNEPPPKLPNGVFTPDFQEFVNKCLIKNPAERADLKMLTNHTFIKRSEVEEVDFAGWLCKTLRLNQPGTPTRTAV
T1 sequence (Q02750 whole entry): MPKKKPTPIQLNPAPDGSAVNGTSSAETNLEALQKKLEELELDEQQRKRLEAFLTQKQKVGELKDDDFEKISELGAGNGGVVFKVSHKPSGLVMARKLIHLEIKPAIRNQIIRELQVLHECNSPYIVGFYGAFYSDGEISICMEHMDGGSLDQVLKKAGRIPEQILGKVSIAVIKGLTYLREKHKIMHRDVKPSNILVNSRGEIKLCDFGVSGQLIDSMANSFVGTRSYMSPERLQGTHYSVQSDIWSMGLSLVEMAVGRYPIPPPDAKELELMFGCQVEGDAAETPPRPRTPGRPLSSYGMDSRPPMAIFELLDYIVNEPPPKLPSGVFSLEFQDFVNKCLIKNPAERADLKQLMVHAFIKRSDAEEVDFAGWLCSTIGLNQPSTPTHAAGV

Consider `CCOC(=O)Nc1ccc2c(c1)C(=O)N(CC)c1ccccc1O2` [BT2, (10-ethyl-11-oxo-10,11-dihydro-dibenzo[b,f][1,4]oxazepin-2-yl)-carbamic acid ethyl ester], for which the “binding to His-MEK1 (SPR)” value in data set [1] is given as “bound to His-MEK1 significantly better than to His-MEK2”. The “inhibition of retinal leakage induced by rhVEGF-A165” value in data set [2] (single IVT 600 μg, 5 d before induction, after 2 days) is ~50%. Moreover, in data set [3], the “serum-inducible endothelial proliferation (xCELLigence cell index)” value was “inhibited serum-inducible proliferation at concentrations in a dose-dependent manner”. Moreover, in data set [3] (autoclaved (121° C., 15 psi, 20 min), 4 months storage at 22° C., 0.4, 0.8 μM), the “biological activity of formulation after autoclaving” value is recorded as “biologically active”. Moreover, the “biological efficacy of stored formulation” value in data set [3] (heat-treated or not, storage up to 16 months) is “no loss in biological efficacy”. In data set [3] (with or without 100° C. for 10 min, 6 weeks storage, 0.4, 0.8 μM), the “inhibition of serum-inducible endothelial proliferation by stored formulation” value is listed as “retained its ability to inhibit serum-inducible endothelial proliferation”. Also, the “endothelial regrowth after mechanical injury in vitro” value in data set [4] is given as “blocked this reparative response”. Moreover, in data set [5], the “binding to His-MEK2 (SPR)” value is reported as “bound to His-MEK1 significantly better than to His-MEK2”. Besides, in data set [6], the “serum-inducible FosB/ΔFosB expression (Western blot)” value was “blocked the inducible expression of FosB and ΔFosB”. Moreover, in data set [7] (adding serum to the diluent), the “effect of serum in the diluent on solubility” value is reported as “increased BT2 solubility”.

For `CCN1C(=O)c2cc(N)ccc2Oc2ccccc21` [BT3, 2-amino-10-ethyldibenzo[b,f][1,4]oxazepin-11 (10H)-one], the “binding to His-MEK1 (SPR)” value in data set [1] is listed as “no appreciable binding”. Moreover, in data set [2] (IVT 600 μg, fluorescence ratio R/L), the “effect on retinal vascular leakage induced by rhVEGF-A165” value was “inactive”. Also, the “serum-inducible endothelial proliferation (xCELLigence cell index)” value in data set [3] is recorded as “no inhibitory effect”. Moreover, in data set [4], the “endothelial regrowth after mechanical injury in vitro” value was “no such effect”. The “binding to His-MEK2 (SPR)” value in data set [5] is reported as “no appreciable binding”. Besides, in data set [6], the “serum-inducible FosB/ΔFosB expression (Western blot)” value is given as “no inhibition”. The “solubility relative to BT2 and analogues” value in data set [7] (dilution in medium containing serum) is listed as “the most soluble of all these dibenzoxazepinones”.
